According to patent US20140363841A1, “INDUCED PLURIPOTENT STEM CELL (IPSC)-DERIVED CARDIOMYOCYTE-LIKE CELLS AND USES THEREOF” (priority 2012, published 2014):
Where “and” joins values, the source holds several entries; their conditions need not be identical. Equal values may be shown once. Read-outs that look alike come from different tables or passages of the source.

Key:
[1] = system: hiPSC-CMs (human induced pluripotent stem cell-derived cardiomyocyte-like cells, lines C2 and C3); test: Multielectrode array (MEA) field potential recording: cFPD and FPmin; format: cell-based; details: for change in FPmin (in words) / changes in cFPD (in words): drug alone; for cFPD (normalized) after reversal of isoprenaline-reduced cFPD: beta-blocker applied after isoprenaline (0.1 μM); for changes in cFPD (in words): CMs from both cell lines; for cFPD effect relative to human ETPC unbound range (in words): non-linear regression of normalized cFPD, dose range 10^−9-10^−4 M; for FPmin (normalized values): baseline 100±0
Description: Human iPSC lines [MSnviPSNF2 (C2), MSnviPSNF3 (C3)] were maintained on 1% matrigel (BD Biosciences, CA, USA) and grown in chemically defined mTeSR1 medium (Stem Cell Technologies, VA, Canada). Care was taken to manually remove the differentiated areas (<10%) with the help of a scraper before passaging. Cells were washed with DMEM-F12 (Invitrogen, USA) and incubated with 1 mg/ml dispase (Sigma, USA) for 5-7 minutes. Cells were then washed with DMEM-F12 and colonies scrapped from the culture dishes. Controlled tituration of the colonies was performed to get small clumps of approximately 50-70 μm in size for replating on new matrigel coated dishes (1:6 split ratio).
Subsequently, EBs were plated on 0.1% gelatin coated dishes in EB medium without SB203580. […] Beating areas were manually cut after day 21 of differentiation and utilized for various experiments.
(§1) To characterize the electrophysiological properties of the hiPSC-CMs, a multielectrode array (MEA) recording system (Multichannel Systems, Reutlingen, Germany) was used. The contracting areas were microdissected and plated on gelatin coated MEA plates. The MEA system allows simultaneous recordings from 60 titanium nitride electrodes (30 μm) at high spatial (200 μm) and temporal (15 kHz) resolutions. To assess the effects of different drugs on the electrophysiological properties, the stock drugs in DMSO were diluted in medium (2 mL). All drugs utilized in the study were purchased from Sigma, USA. Extracellular recording were performed for 180-300 seconds at baseline and at 5 minutes after drug application. The local activation maps were generated using Cardio2D software (Multichannel Systems, Reutlingen, Germany). The recorded electrograms were also used to determine the local field potential (FP) duration (FPD).
Comparisons at each time point were conducted using analysis of variance (ANOVA), and all data are presented as mean values±s.e.m of three independent experiments. Differences were considered statistically significant at p≦0.05. Corrected field potential duration curves were fitted using the one phase decay algorithm from GraphPad Prism software.

hiPSC-CMs [2] = details: for modulation of beating rates (in words): beta-blocker applied alone; for effect on isoprenaline-induced increase in beating frequencies (in words): clusters initially treated with isoprenaline
Text: as §1
The different agents were also evaluated to determine if these agents (drugs) could induce arrhythmia in hiPSC-CMs at supraphysiological ranges.

hiPSC-CMs [3] = test: MEA conduction velocity; format: cell-based, human
Text: as §1

[4] = human, unbound therapeutic plasma concentration; cited from earlier work
[5] = system: contracting EBs (iPSC-derived cardiomyocyte-like cells); test: Beat rate variability analysis in beta-adrenergic response (power spectral density of RR intervals); format: cell-based, human; details: 0.1 μM isoprenaline, then 1 μM beta-blocker where stated
Text: To study the autonomic modulations of beating period of the contracting EBs, power spectral density of beat-to-beat or RR intervals based on 5-min recordings from the MEA were used to derive the Total Power (TP), very low frequency power (VLF), low frequency power (LF), high frequency power (HF), LF (normalized unit), HF (normalized unit) and ratio of LF/HF of spectral of beat rate variability using software such as HRV Toolkit (physionet.org/tutorials/hrv-toolkit/, Harvard Medical School) or LabVIEW Biomedical Toolkit for heart rate variability. […] The data were obtained using iPSC-derived cardiomyocyte-like cells from an individual with genetic pre-disposition to cardiac arrhythmia (n=4; referring to 4 regional areas within an EB), and iPSC-derived cardiomyocyte-like cells from a normal individual without genetic pre-disposition to cardiac arrhythmia (n=10).

[6] = over all three tested doses (range 0.01-10 μM)
[7] = EBs from individual with genetic disposition to arrhythmia (n=4)
[8] = EBs from normal healthy donor (n=10)

Structure (SMILES): O=C(NCC1CCCCN1)c1cc(OCC(F)(F)F)ccc1OCC(F)(F)F (centres unmarked) [flecainide, Flecainide]
- increase in cFPDs ([1]; 1 μM): 1.7 fold
- cFPD ([1]; 1 μM, C2 derived CMs, baseline 0.32±0.04 s, n=3): 0.55 ± 0.06 s
- change in FPmin (in words) [1]: did not show any significant change
- increase in beating frequencies (hiPSC-CMs [2]; 10 μM): 2 fold
- reduction of conduction velocity (hiPSC-CMs [3]; 1 μM): 45%
- reduction of conduction velocity (in words) (hiPSC-CMs [3]; lowest dose, 0.01 μM): did not show any significant reduction

Structure (SMILES): CC(C)(C)NCC(O)COc1cccc2c1CC(O)C(O)C2 (centres unmarked) [nadolol, Nadolol]
- cFPD (normalized) after reversal of isoprenaline-reduced cFPD ([1]; n=3): 92.3±1.5%
- change in FPmin (in words) [1]: did not have any significant effects
- changes in cFPD (in words) [1]: did not have any significant effects
- cFPD effect relative to human ETPC unbound range (in words) [1]: no significant cFPD prolongation within the ETPC unbound range
- modulation of beating rates (in words) (hiPSC-CMs [2]): not apparent
- effect on isoprenaline-induced increase in beating frequencies (in words) (hiPSC-CMs [2]): reversed
- ETPC unbound range [4]: 0.18 to 0.80 µM

Structure (SMILES): CC(C)NCC(O)c1ccc(NS(C)(=O)=O)cc1 (centres unmarked) [sotalol, Sotalol]
- cFPD prolongation ([1]; 50 μM): 65%
- change in FPmin (in words) [1]: did not show any significant change
- cFPD effect relative to human ETPC unbound range (in words) [1]: maximally observed within the human ETPC range
- increase in beating frequencies (hiPSC-CMs [2]; 500 μM): 1.8 fold
- ETPC unbound range [4]: 1.8 to 14 µM

Structure (SMILES): CCN(CC)CC(=O)Nc1c(C)cccc1C [lidocaine, Lidocaine]
- changes in cFPD (in words) [1]: did not demonstrate any significant changes
- effect on FPmin, dose-dependent treatment (in words) ([1]; maximal effects at 10 μM dosage): FPmin shortening
- reduction of conduction velocity (hiPSC-CMs [3]; [6]): 40%

Structure (SMILES): C=C[C@H]1C[N@@]2CC[C@H]1C[C@@H]2[C@@H](O)c1ccnc2ccc(OC)cc12 [quinidine, Quinidine]
- FPmin shortening ([1]; 10 μM, C2 cell line derived CMs): 55%
- FPmin (normalized) ([1]; 10 μM, C2 cell line derived CMs, baseline 100, n=3): 45±3.5%
- cFPD ([1]; 10 μM, C2 line derived CMs, baseline 0.31±0.03 s, n=3): 0.50 ± 0.05 s
- maximum FPmin shortening ([1]; 10 μM, C3 cell line derived CMs): 37%
- cFPD prolongation ([1]; 10 μM, CMs derived from C2 line): 62%
- cFPD prolongation ([1]; 10 μM, hiPSC-CMs (FIG. 1A, C)): 55%
- increase in beating frequencies (hiPSC-CMs [2]; 100 μM): 3 fold
- beating frequency (BF) (hiPSC-CMs [2]; 100 μM, baseline 0.66±0.06 Hz, n=3): 1.84±0.08 Hz
- reduction of conduction velocity (hiPSC-CMs [3]; [6]): 20-25%

Structure (SMILES): COc1ccc(CCN(C)CCCC(C#N)(c2ccc(OC)c(OC)c2)C(C)C)cc1OC (centres unmarked) [verapamil, Verapamil]
- effect on beating frequencies (in words) (hiPSC-CMs [2]): significantly reduced beating frequencies
- effect of prolonged exposure (in words) (hiPSC-CMs [2]; 5 μM): beating arrest

Structure (SMILES): CC(C)NCC(O)c1ccc(O)c(O)c1 (centres unmarked) [isoprenaline]
- cFPD reduction ([1]; 0.1 μM): 20%
- cFPD (normalized) ([1]; 0.1 μM isoprenaline, baseline 100±0.0%, n=3): 81.2±2.4% and 79.6±3.4%
- effect on beating frequencies (in words) (hiPSC-CMs [2]; clusters treated with the beta-adrenergic agonist): significant increase in beating frequencies
- HF (normalized unit) [5, 7]: 38.864±16.674%
- LF (normalized unit) [5, 7]: 61.136±16.674%
- LF/HF ratio [5, 7]: 1.897±1.052
- Total Power (TP) of beat rate variability [5, 7]: 0.464±0.047 ms^2
- high frequency power (HF) [5, 7]: 0.064±0.095 ms^2
- low frequency power (LF) [5, 7]: 0.058±0.043 ms^2
- very low frequency power (VLF) [5, 7]: 0.341±0.167 ms^2
- HF (normalized unit) [5, 8]: 25.494±2.381%
- LF (normalized unit) [5, 8]: 74.505±2.380%
- LF/HF ratio [5, 8]: 2.949±0.326
- Total Power (TP) of beat rate variability [5, 8]: 0.645±0.001 ms^2
- high frequency power (HF) [5, 8]: 0.017±0.002 ms^2
- low frequency power (LF) [5, 8]: 0.050±0.001 ms^2
- very low frequency power (VLF) [5, 8]: 0.578±0.002 ms^2

Structure (SMILES): CCCCc1oc2ccccc2c1C(=O)c1cc(I)c(OCCN(CC)CC)c(I)c1 [amiodarone, Amiodarone]
- cFPD prolongation ([1]; 1 μM): 37%
- cFPD ([1]; 1 μM, C2 derived CM, baseline 0.26±0.009 s, n=3): 0.36 ± 0.01 s
- FPmin shortening ([1]; 1 μM, C2 derived CMs): 25%
- FPmin (normalized values) ([1]; 1 μM, C2 derived CMs, n=3): 73.6±3.8
- FPmin (normalized values) ([1]; 1 μM, C3 derived CMs, n=3, ns): 90±2.7
- FPmin reduction ([1]; 1 μM, C3 derived CMs, ns): 10%
- effect on beating frequencies (in words) (hiPSC-CMs [2]; higher doses, 10-100 μM): increased beating frequencies

Structure (SMILES): CC(C)NCC(O)COc1cccc2ccccc12 (centres unmarked) [propranolol, Propranolol]
- cFPD (normalized) after reversal of isoprenaline-reduced cFPD ([1]; n=3): 98.3±4.5%
- change in FPmin (in words) [1]: did not have any significant effects
- changes in cFPD (in words) [1]: did not have any significant effects
- modulation of beating rates (in words) (hiPSC-CMs [2]): not apparent
- effect on isoprenaline-induced increase in beating frequencies (in words) (hiPSC-CMs [2]): reversed
- effect on beating frequencies (in words) (hiPSC-CMs [2]; higher doses, 10-100 μM): did not show any major effect
